{
  "source": "patent US6790859B2",
  "about": "“Reversing advanced glycosylation cross-links using heterocyclic-substituted thiazolium compounds” (Alteon Incorporated, priority 1998, dated 2004)",
  "data": [
    {"tested_on": "AGE-BSA cross-linked to rat tail tendon collagen (type 1)", "test": "Reversing collagen cross-links: AGE-BSA cross-linked to rat tail tendon collagen-coated plates", "type": "biochemical", "details": "3 mM test compound, overnight at 37° C.", "description": "In a further evaluation of the ability of compounds of the present invention to reverse AGE cross-links between a circulating protein and collagen, AGE-BSA was cross-linked to rat tail tendon collagen (type 1)-coated 96 well microtiter plates, and reversal of cross-linking was determined.\nAGE-BSA preparation. AGE-BSA is prepared by incubation of a solution of BSA (400 mg/ml) in 0.4 M sodium phosphate buffer pH 7.4 with an equal volume of 400 mM glucose solution in the same buffer at 37° C. for 12 weeks. The pH of the incubation mixture is monitored weekly and adjusted to pH 7.4 if necessary. After 12 weeks, the AGE-BSA solution is dialyzed against PBS for 48 hours with 4 buffer changes. Protein concentration is determined by the micro-Lowry method.\nAssay protocol. […] AGE-BSA was diluted in PBS to a concentration required to obtain maximum cross-linking as determined in a preliminary experiment. […]\nTest compounds are dissolved in PBS and pH adjusted to 7.0 if necessary. […] The test compounds and PBS are also added to triplicate wells incubated with BSA, to obtain the blank readings. […]\nThe plate is washed with PBS-Tween, […] of Rabbit-anti-BSA antibody (1 to 4000 in PBS) is added to each well and the plate is incubated at room temperature for 60 min. […] Optical density is read at 410 nm with the sample filter set to “1” and the reference filter set to “5” on the Dynatech ELISA plate reader. […]", "units": {"reversal of AGE cross-links (percent breaking, decrease in OD of TTC-AGE-BSA wells vs PBS)": "%"}, "values": [
      {"smiles": "O=C(C[n+]1ccsc1)c1cc(-c2ccccc2)no1.[Br-]", "note": "[3-[2-(3-phenyl-5-isoxazolyl)-2-oxoethyl]-thiazolium bromide]", "reversal of AGE cross-links (percent breaking, decrease in OD of TTC-AGE-BSA wells vs PBS)": 15}
    ]},
    {"tested_on": "IgG bound to the surface of RBC (AGE cross-links)", "test": "Reversing AGE cross-links: RBC-IgG assay (IgG bound to RBC from streptozotocin-diabetic rats)", "type": "cell-based, rat", "details": "RBC of streptozotocin-diabetic rats incubated with test compound in PBS overnight at 37° C.; concentration not given", "description": "The activity of the compounds of the present invention to reverse AGE cross-links was evaluated in an in-vitro model, as follows. Blood was collected from streptozotocin-diabetic rats (6 to 8 wk diabetic) in heparinized tubes, centrifuged at 2500×g for 15 min. at […], and the plasma and buffy-coat layers aspirated off. The RBC were washed with PBS (ca. 5 ml PBS per ml blood) three times. Test compounds were dissolved in PBS and the pH adjusted to 7.0, if necessary. Two hundred microliters of washed RBC were added to 2 mL of test compound solution, and the mixture was incubated overnight at 37° C. […] After the overnight incubation, the reaction mixtures were centrifuged and the RBC pellets were washed three times with PBS, followed by diluting 1:30 in PBS. Immunoglobulin G (IgG) bound to the surface of the washed RBCs was then determined. Assay for RBC-IgG: The assay is performed in a Multiscreen-HA, 0.45 μm cellulose mixed esters membrane-sealed 96 well plate (Millipore MAHAS45). The membranes are first wet by filling the wells with 100 uL PBS, and the wells emptied by applying a vacuum to the Millititer vacuum manifold. Three hundred uL of Superblock (pre-warmed to 37° C.) is then added to each well and incubated at 37° C. for one hour. The Superblock is then removed from the wells by application of vacuum, then the wells are washed once with 300 ul of PBS-Tween (0.05%) and three times with PBS. The vacuum is then turned off. One hundred μl of PBS is then added to each well. Each RBC sample is gently vortexed, and 50 uL pipetted into the wells, in sextuplicate. The wells labeled A1-A3 are left for a reagent blank and wells A4-A6 reserved for an antibody blank. Vacuum is then applied to remove the buffer and the RBCs are washed once with PBS. Alkaline phosphatase-labeled rabbit-anti-rat IgG is diluted 1 to 25000 in PBS, and 50 μl is added to triplicate wells of each sample. PBS alone is added to the other three wells of each sample. These will serve as sample blanks to adjust for any endogenous alkaline phosphatase activity. The samples are allowed to stand at room temperature for two hours. The solution is then removed by application of vacuum and the red blood cells are washed with PBS-Tween twice, PBS twice and with TBS twice. The bottom of the plate is rinsed with distilled water and blotted dry with paper towels. To each well is then added 100 μl of p-nitrophenyl phosphate substrate (1 mg/ml in diethanolamine buffer pH 9.5), and the color is allowed to develop for two hours at 37° C. The solutions in each well are then transferred to a 96 well microtiter plate inside the vacuum manifold. One hundred μl of PBS to each well and vacuum applied again to transfer any remaining solution into the microtiter plate. The OD at 410 nm is then read in a Dynatech Plate reader (Sample filter 1 and Ref. filter 4). For data analysis, breaking activity (percent reversal) is expressed as the percent decrease in O.D. caused by incubation of RBC with the test compound compared to RBC incubated in PBS alone. Using the above assay, the following data was generated on the compounds of the present invention: […]", "units": {"Percent reversal (breaking activity: percent decrease in O.D. vs RBC incubated in PBS alone)": "%"}, "values": [
      {"smiles": "Cc1sc[n+](CC(=O)N2CCCCC2)c1C.[Br-]", "note": "[3-(2-(1-piperidinyl)-2-oxoethyl)-4,5-dimethylthiazolium bromide]", "Percent reversal (breaking activity: percent decrease in O.D. vs RBC incubated in PBS alone)": 37},
      {"smiles": "Cc1sc[n+](CC(=O)N2CCCC2)c1C.[Br-]", "note": "[3-(2-(1-pyrrolidinyl)-2-oxoethyl)-4,5-dimethyl-thiazolium bromide]", "Percent reversal (breaking activity: percent decrease in O.D. vs RBC incubated in PBS alone)": 63},
      {"smiles": "Cc1sc[n+](CC(=O)c2ccco2)c1C.[Br-]", "note": "[3-(2-(2-furanyl)-2-oxoethyl)-4,5-dimethylthiazolium bromide]", "Percent reversal (breaking activity: percent decrease in O.D. vs RBC incubated in PBS alone)": 76},
      {"smiles": "Cc1sc[n+](CC(=O)c2ccccn2)c1C.[Br-]", "note": "[3-(2-(2-pyridinyl)-2-oxoethyl)-4,5-dimethyl-thiazolium bromide]", "Percent reversal (breaking activity: percent decrease in O.D. vs RBC incubated in PBS alone)": 27},
      {"smiles": "Cc1sc[n+](CC(=O)c2cccs2)c1C.[Br-]", "note": "[3-(2-(2-thienyl)-2-oxoethyl)-4,5-dimethyl-thiazolium bromide]", "Percent reversal (breaking activity: percent decrease in O.D. vs RBC incubated in PBS alone)": 53},
      {"smiles": "Cc1c(CCO)sc[n+]1CC(=O)c1cccs1.[Br-]", "note": "[3-(2-(2-thienyl)-2-oxoethyl)-4-methyl-5-hydroxyethylthiazolium bromide]", "Percent reversal (breaking activity: percent decrease in O.D. vs RBC incubated in PBS alone)": 24},
      {"smiles": "Cc1sc[n+](CC(=O)N2CCSCC2)c1C.[Br-]", "note": "[3-(2-(4-thiomorpholinyl)-2-oxoethyl)-4,5-dimethylthiazolium bromide]", "Percent reversal (breaking activity: percent decrease in O.D. vs RBC incubated in PBS alone)": 47},
      {"smiles": "Cc1sc[n+](CC(=O)N2CC(C)OC(C)C2)c1C.[Br-]", "note": "(stereo not drawn) [3-[2-(2,6-dimethyl-4-morpholinyl)-2-oxoethyl]-4,5-dimethylthiazolium bromide]", "Percent reversal (breaking activity: percent decrease in O.D. vs RBC incubated in PBS alone)": 38},
      {"smiles": "Cc1sc[n+](CC(=O)c2ccc3c(c2)CCC(=O)N3)c1C.[Br-]", "note": "[3-[2-(2-oxo-1,2,3,4-tetrahydro-6-quinolinyl)-2-oxoethyl]-4,5-dimethylthiazolium bromide]", "Percent reversal (breaking activity: percent decrease in O.D. vs RBC incubated in PBS alone)": 84},
      {"smiles": "O=C(C[n+]1ccsc1)c1cc(-c2ccccc2)no1.[Br-]", "note": "[3-[2-(3-phenyl-5-isoxazolyl)-2-oxoethyl]-thiazolium bromide]", "Percent reversal (breaking activity: percent decrease in O.D. vs RBC incubated in PBS alone)": 38},
      {"smiles": "Cc1sc[n+](CC(=O)N2CCC(Cc3ccccc3)CC2)c1C.[Cl-]", "note": "[3-[2-(4-benzyl-1-piperidinyl)-2-oxoethyl]-4,5-dimethylthiazolium chloride]", "Percent reversal (breaking activity: percent decrease in O.D. vs RBC incubated in PBS alone)": 70}
    ]}
  ]
}
